# From patent publication US5149717A, “Alkanophenones useful for treating allergies” (Ciba-Geigy Corporation, priority 1988, dated 1992)
# Counter-ions that a name gives are not always drawn.
# How the values were obtained:
# [1] = molecular target: phospholipase A2 obtained from human leucocytes; assay: In vitro test to determine the inhibition of phospholipase A2 obtained from human leucocytes; format: biochemical; details: under the described test conditions
# Description: Neutrophilic polymorpho-nuclear human leucocytes are isolated from "Buffy coats" by multi-step fractional sedimentation and are deep-frozen. The phospholipase A2 is extracted from the cell suspension by homogenisation with the addition of ice-cold 0.36N H2 SO4 in 2N NaCl and the supernatant obtained after centrifugation at 10,000×g is dialysed against sodium acetate buffer pH 4.5.
# In order to determine the enzyme activity, enzyme (10-30 μg of protein) is incubated at 37° for 1 hour in 0.1M tris/HCl buffer pH 7 with the addition of 1 mmol of CaCl2 and substrate consisting of phospholipids (2 μm) of Escherichia coli radioactively labelled biosynthetically with ^14 C-oleic acid. The reaction is stopped by the addition of Dole reagent (isopropanol/heptane/1N H2 SO4 40:10:1, v/v) and the ^14 C-oleic acid freed selectively by phospholipase A2 is extracted. […]
# In order to detect an inhibitory action of test substances on phospholipase A2, the test substances are added to the incubation mixture in the form of solutions in water, dimethyl sulfoxide (final concentration in the batch up to 5%, v/v) or ethanol (final concentration in the batch up to 2.5%, v/v). […] The IC50 is determined graphically by plotting the percentage inhibition on the ordinate against the log of the concentration (μm) on the abscissa.
# [2] = molecular target: phospholipase C obtained from human thrombocytes; assay: In vitro test to determine the inhibition of phospholipase C obtained from human thrombocytes; format: biochemical; details: under the described test conditions
# Description: Human thrombocytes are obtained from "Buffy coats" by fractional centrifugation and are then deep-frozen. The phospholipase C is freed by ultrasound treatment of the cell suspension and after ultracentrifugation (150,000×g for 1 hour) is present in soluble form in the supernatant.
# In order to determine the enzyme activity, enzyme (20-100 μg of protein) is incubated at 37° for 5 minutes in 0.025M tris/maleate buffer pH 6 with the addition of 0.2 mmol of CaCl2 and 0.02 mmol of radioactively labelled substrate, phosphatidyl-[^14 C]-inositol. The reaction is stopped by shaking with CHCl3 /CH3 OH 2:1 (v/v), in the course of which unused substrate is extracted into the organic phase, while the reaction product, ^14 C-inositol phosphate, remains in the aqueous phase and can be measured by radiometry of an aliquot.
# In order to detect an inhibitory action of test substances on phospholipase C, the test substances are added to the incubation mixture in the form of solutions in water, dimethyl sulfoxide (final concentration in the batch up to 5%, v/v) or ethanol (final concentration in the batch up to 2.5%, v/v). […] The IC50 is determined graphically by plotting the percentage inhibition on the ordinate against the log of the concentration (μm) on the abscissa.
smiles,measurement,setting,value
"CCN(CC)CCCC(C)Nc1c2ccc(Cl)cc2nc2ccc(OC)cc12 (centres unmarked) [MEPACRINE, quinacrin hydrochloride]",IC50,[1],1.6 mM
same,IC50,[2],20 µM
